Where “and” joins values, the source holds several entries; their conditions need not be identical. Equal values may be shown once. Calls of active or inactive are those of the source.
Tests used:
[1] = molecular target: Voltage-dependent T-type calcium channel subunit alpha-1H (Homo sapiens, UniProt O95180); experiment: human CACNA1H calcium influx blockade – cell-based, synthetic library set 1, calcium flux (AID 493022); format: functional
[2] = molecular target: CAAX prenyl protease 2 (Saccharomyces cerevisiae S288c, UniProt Q03530); format: biochemical
Chain of CAAX prenyl protease 2 (Q03530 whole entry): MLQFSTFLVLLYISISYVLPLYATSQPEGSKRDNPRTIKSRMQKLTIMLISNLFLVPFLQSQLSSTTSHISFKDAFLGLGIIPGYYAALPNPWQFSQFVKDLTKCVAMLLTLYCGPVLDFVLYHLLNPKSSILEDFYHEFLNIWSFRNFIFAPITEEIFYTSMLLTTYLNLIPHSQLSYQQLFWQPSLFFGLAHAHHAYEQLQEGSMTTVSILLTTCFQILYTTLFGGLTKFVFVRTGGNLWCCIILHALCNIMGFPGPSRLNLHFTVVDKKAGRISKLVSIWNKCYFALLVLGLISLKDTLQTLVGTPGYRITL

[3] = molecular target: DNA dC->dU-editing enzyme APOBEC-3G (Homo sapiens, UniProt Q9HC16); format: functional;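 further: Dose-response counterscreen measuring inhibition of APOBEC3G DNA deaminase activity, run while confirming APOBEC3A inhibitors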
Chain of DNA dC->dU-editing enzyme APOBEC-3G (Q9HC16 whole entry): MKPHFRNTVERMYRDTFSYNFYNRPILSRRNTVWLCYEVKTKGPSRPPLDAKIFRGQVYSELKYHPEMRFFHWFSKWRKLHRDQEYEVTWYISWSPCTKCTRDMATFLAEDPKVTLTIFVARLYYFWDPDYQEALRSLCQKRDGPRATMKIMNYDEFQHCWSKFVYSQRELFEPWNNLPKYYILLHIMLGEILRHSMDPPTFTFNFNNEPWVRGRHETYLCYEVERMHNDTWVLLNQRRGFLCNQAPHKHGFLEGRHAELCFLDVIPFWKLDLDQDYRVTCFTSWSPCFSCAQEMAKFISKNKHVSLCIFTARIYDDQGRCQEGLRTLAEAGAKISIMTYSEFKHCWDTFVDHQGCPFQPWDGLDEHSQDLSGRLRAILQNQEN

[4] = molecular target: DNA dC->dU-editing enzyme APOBEC-3A (Homo sapiens, UniProt P31941); experiment: Dose Response confirmation of small molecule APOBEC3A DNA Deaminase Inhibitors via a fluorescence-based single-stranded DNA deaminase assay. [Related pubchem assays (depositor defined):AID493011, AID493024]; format: functional
Chain of DNA dC->dU-editing enzyme APOBEC-3A (P31941 whole entry): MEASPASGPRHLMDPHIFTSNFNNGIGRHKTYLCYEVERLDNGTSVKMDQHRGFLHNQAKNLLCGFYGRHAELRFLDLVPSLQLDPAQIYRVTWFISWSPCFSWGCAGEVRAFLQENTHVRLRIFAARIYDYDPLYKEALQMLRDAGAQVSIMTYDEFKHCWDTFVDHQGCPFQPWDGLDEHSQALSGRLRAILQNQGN

[5] = molecular target: Eukaryotic translation initiation factor 4H (Homo sapiens, UniProt Q15056); experiment: inhibitors of translation initiation factor eIF4H – SAR follow-up (AID 435011); format: functional
[6] = molecular target: Polyadenylate-binding protein 1 (Homo sapiens, UniProt P11940); experiment: PABP inhibition in translation initiation, SAR follow-up (AID 435018); format: functional
Chain of Polyadenylate-binding protein 1 (P11940 whole entry, the tested form may be a part): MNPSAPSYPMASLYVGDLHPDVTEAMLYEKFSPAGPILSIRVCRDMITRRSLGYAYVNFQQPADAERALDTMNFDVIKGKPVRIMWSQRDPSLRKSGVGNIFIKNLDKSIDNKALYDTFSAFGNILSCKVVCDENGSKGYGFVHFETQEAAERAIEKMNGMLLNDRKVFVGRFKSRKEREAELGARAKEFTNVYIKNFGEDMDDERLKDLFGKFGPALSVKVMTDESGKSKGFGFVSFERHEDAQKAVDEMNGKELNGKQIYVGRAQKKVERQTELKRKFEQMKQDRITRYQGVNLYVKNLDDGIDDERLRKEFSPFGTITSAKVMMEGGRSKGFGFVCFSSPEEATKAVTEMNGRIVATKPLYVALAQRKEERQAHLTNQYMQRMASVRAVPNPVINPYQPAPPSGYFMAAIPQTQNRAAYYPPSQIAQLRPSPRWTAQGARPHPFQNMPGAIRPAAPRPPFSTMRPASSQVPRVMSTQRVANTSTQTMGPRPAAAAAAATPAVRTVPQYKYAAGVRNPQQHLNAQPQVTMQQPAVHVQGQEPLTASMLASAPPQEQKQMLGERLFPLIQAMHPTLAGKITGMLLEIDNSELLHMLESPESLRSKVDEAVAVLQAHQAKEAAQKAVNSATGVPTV

[7] = molecular target: NACHT, LRR and PYD domains-containing protein 1 (Homo sapiens, UniProt Q9C000); experiment: NALP1 inhibitors in yeast, dose response, luminescent (AID 488860); format: functional
Chain of NACHT, LRR and PYD domains-containing protein 1 (Q9C000 1-1212 limits assumed): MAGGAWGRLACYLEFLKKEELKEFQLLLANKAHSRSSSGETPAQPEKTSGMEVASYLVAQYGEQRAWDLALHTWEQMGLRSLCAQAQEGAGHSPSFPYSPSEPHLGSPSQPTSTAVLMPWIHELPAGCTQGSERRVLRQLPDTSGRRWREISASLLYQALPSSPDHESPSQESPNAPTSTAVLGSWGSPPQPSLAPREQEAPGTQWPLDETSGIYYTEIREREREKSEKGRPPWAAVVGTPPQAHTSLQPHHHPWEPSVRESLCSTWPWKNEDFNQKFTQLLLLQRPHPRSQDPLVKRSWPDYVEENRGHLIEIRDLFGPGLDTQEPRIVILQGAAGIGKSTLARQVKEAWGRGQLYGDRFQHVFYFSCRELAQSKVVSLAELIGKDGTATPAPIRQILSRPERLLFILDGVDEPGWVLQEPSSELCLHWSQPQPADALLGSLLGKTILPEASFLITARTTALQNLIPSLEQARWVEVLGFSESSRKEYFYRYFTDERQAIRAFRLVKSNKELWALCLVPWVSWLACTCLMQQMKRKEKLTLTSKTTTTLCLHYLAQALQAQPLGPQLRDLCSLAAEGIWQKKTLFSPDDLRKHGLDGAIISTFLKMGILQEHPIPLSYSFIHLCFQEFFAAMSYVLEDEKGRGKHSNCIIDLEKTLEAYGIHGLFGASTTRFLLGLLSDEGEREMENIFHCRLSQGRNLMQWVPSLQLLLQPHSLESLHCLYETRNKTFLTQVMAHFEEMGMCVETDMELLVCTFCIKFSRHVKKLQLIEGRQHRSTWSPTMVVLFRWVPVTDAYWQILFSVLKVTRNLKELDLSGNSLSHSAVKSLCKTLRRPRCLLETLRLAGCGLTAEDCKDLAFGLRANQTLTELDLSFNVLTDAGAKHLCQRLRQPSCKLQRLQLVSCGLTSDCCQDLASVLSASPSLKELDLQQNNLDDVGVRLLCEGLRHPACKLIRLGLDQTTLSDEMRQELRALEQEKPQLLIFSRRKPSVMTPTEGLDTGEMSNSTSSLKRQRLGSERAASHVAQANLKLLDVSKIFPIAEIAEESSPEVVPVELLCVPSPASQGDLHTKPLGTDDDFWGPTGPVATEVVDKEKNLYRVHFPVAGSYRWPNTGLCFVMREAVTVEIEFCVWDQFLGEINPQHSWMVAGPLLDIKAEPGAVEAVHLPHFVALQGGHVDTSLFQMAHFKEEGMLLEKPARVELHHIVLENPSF
Chain of NACHT, LRR and PYD domains-containing protein 1 (Q9C000 1213-1473 limits assumed): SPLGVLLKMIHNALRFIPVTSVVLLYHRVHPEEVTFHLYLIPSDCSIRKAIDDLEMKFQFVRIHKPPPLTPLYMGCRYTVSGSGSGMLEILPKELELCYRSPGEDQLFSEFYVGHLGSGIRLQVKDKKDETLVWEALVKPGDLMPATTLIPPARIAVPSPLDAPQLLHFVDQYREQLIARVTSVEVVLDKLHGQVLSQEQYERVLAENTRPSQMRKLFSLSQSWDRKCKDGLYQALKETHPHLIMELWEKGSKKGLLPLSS

[8] = viability of PTEN-deleted HCT116 cells – cell-based, HCT116 PTEN knockout, dose response (AID 1047); format: functional;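 further: HCT116 colon tumor cells with PTEN knocked out; cells exposed to compound for 60 hours before readout; potency for loss of cell viability measured by luminescence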
[9] = molecular target: T1, Bifunctional protein GlmU (Mycobacterium tuberculosis, UniProt P9WMN3); experiment: Inhibitors of Mycobacterial Glucosamine-1-phosphate acetyl transferase (GlmU). Secondary screen.; design: species or system Mycobacterium tuberculosis H37Rv
T1 sequence (P9WMN3 whole entry): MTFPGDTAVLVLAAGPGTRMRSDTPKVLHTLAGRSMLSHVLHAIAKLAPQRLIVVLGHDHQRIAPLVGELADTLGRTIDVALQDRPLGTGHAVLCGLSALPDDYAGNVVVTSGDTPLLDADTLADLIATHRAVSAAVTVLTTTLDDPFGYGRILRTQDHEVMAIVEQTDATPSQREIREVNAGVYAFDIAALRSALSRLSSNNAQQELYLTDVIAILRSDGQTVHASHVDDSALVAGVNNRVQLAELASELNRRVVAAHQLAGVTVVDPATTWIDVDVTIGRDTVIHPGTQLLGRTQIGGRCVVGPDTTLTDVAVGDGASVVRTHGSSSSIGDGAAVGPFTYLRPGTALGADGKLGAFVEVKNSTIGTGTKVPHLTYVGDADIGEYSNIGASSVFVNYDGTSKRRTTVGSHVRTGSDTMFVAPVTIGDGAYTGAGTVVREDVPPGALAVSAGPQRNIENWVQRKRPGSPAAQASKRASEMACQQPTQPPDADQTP

[10] = molecular target: T2, Protein RecA (Mycobacterium tuberculosis, UniProt P9WHJ3); experiment: Fluorescence Cell-Free Homogeneous Dose Retest to Identify Inhibitors of RecA-Intein Splicing Activity. [Related pubchem assays (depositor defined):AID2097, AID2223, AID489010, AID492950]; format: functional
T2 sequence (P9WHJ3 whole entry): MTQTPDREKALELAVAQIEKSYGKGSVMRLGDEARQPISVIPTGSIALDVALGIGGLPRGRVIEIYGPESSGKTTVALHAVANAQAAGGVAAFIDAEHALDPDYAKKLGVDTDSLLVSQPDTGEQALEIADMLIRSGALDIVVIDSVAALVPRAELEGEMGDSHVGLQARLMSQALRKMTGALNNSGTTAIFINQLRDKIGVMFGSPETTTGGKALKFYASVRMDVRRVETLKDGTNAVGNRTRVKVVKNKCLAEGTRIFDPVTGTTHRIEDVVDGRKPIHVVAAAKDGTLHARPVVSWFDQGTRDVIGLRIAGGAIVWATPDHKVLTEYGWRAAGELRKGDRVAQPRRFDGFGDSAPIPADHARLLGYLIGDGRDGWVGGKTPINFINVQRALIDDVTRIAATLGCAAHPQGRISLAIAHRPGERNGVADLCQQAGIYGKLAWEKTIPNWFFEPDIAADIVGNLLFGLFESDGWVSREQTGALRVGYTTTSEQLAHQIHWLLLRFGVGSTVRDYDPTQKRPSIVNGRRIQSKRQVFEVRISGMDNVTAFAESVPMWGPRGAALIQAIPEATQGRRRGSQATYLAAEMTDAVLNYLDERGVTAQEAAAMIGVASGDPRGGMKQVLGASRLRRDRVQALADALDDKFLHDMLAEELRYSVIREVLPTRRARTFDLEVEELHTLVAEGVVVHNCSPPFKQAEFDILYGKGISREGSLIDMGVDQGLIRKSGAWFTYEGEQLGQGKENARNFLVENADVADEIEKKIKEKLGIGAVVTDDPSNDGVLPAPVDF

[11] = tested on: Saccharomyces cerevisiae; experiment: S. cerevisiae Caspase-1/ASC signal blockers IC50, NALP1 inhibitor project selectivity test (AID 488863); format: functional, organism-based
[12] = viability of HCT116 lacking mutant beta-catenin – cell-based, human colon tumor, dose response (AID 1045); format: functional;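 further: HCT116 colon tumor cells with beta catenin knocked out; cells exposed to compound for 60 hours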
[13] = molecular target: T3, Heat shock factor protein 1 (Mus musculus, UniProt P38532); experiment: enhancement of HSF1-driven luciferase signal – cell-based, NIH3T3, luminescence, dose retest, confirmation (AID 435004); format: functional;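 further: stress induced by proteasome inhibitor MG132 added 30 min after compound; luciferase reporter driven by HSF1 response element in NIH3T3 cells; actives raise luminescence as potentiators of the MG132 stress response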
T3 sequence (P38532 whole entry): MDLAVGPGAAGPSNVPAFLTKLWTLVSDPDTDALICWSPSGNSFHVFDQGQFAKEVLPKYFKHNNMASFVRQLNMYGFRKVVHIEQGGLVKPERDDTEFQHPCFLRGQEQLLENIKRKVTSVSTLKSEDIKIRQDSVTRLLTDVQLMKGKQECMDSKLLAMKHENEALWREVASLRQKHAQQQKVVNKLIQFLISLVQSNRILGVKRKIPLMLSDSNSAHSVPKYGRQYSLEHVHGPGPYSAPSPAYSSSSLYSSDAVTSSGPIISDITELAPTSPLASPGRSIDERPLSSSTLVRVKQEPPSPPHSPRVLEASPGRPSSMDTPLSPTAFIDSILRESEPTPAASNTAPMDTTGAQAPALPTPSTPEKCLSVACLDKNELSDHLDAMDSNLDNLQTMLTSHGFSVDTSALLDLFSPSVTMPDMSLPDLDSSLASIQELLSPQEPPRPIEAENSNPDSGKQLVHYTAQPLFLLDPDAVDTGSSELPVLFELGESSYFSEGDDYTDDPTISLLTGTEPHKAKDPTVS

[14] = molecular target: T4, Replicative DNA helicase DnaB (Mycobacterium tuberculosis, UniProt P9WMR3); experiment: DnaB intein splicing inhibitors, dose response, biochemical, cell-free fluorescence (AID 449749); format: functional
T4 sequence (P9WMR3 whole entry): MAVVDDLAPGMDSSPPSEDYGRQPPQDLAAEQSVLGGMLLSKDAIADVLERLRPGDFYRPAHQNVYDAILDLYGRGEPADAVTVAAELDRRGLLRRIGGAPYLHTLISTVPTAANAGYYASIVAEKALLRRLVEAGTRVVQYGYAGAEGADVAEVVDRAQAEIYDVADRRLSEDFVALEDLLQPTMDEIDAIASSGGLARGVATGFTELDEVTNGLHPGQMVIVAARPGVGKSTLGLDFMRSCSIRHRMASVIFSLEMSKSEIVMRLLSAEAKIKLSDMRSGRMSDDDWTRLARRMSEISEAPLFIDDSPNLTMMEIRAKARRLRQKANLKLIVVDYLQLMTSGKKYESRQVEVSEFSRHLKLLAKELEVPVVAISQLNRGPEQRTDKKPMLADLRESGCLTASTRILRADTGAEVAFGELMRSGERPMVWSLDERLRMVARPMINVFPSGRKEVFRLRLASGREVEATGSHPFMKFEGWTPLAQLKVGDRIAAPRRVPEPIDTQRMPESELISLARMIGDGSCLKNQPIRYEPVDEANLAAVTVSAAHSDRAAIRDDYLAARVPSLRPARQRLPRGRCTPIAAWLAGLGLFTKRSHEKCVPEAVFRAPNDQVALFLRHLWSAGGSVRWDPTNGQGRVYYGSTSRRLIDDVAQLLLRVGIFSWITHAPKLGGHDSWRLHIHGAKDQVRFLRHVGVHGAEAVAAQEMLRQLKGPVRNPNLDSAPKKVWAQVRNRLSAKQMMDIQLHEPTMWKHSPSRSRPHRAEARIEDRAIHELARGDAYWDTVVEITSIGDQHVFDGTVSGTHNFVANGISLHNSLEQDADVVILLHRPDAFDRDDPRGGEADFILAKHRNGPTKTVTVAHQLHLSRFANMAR

[15] = molecular target: T5, Alkaline phosphatase, tissue-nonspecific isozyme (Homo sapiens, UniProt P05186); experiment: potency against alkaline phosphatase TNAP – biochemical, luminescent, dose response, SAR follow-up (AID 1056)
T5 sequence (P05186 whole entry): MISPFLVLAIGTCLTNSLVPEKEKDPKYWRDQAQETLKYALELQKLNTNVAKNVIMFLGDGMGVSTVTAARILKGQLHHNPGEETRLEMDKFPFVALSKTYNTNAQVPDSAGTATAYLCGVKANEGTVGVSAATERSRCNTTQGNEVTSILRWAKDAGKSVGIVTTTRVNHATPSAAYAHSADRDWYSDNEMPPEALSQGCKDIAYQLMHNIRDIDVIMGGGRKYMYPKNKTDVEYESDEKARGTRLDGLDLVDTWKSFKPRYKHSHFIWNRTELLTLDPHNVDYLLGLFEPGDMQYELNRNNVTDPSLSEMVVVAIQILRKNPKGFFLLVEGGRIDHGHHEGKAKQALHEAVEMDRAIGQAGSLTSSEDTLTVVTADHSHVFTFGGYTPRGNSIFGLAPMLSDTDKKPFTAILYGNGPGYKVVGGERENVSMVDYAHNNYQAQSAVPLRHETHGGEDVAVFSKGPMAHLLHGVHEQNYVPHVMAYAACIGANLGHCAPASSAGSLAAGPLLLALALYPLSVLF

[16] = molecular target: Large T antigen (Simian virus 40, UniProt P03070); format: functional, Betapolyomavirus macacae;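 further: Confirmatory-stage PubChem screen for compounds that inhibit SV40 T antigen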
Chain of Large T antigen (P03070 whole entry): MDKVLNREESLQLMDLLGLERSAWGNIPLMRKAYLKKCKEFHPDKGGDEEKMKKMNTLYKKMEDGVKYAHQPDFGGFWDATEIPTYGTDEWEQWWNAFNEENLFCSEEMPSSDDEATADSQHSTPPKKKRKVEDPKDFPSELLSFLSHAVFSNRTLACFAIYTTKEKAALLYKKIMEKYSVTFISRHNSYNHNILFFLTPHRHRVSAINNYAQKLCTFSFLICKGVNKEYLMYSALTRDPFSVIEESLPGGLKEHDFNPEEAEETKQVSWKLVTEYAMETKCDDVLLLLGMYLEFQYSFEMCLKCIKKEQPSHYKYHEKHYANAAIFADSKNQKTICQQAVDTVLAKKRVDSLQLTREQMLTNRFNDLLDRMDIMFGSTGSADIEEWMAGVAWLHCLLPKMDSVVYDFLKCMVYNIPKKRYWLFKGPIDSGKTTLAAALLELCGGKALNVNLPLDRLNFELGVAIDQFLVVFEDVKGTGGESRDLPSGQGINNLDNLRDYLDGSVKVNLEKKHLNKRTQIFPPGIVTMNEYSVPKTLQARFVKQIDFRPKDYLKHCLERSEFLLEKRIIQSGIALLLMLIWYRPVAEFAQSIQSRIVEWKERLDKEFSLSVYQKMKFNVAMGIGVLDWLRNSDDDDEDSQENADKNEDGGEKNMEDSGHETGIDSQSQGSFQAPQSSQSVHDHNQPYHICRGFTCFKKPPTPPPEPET

[17] = molecular target: Alkaline phosphatase, placental type (Homo sapiens, UniProt P05187); experiment: human placental alkaline phosphatase inhibition – biochemical, luminescence, confirmation (AID 1512); format: functional
Chain of Alkaline phosphatase, placental type (P05187 whole entry): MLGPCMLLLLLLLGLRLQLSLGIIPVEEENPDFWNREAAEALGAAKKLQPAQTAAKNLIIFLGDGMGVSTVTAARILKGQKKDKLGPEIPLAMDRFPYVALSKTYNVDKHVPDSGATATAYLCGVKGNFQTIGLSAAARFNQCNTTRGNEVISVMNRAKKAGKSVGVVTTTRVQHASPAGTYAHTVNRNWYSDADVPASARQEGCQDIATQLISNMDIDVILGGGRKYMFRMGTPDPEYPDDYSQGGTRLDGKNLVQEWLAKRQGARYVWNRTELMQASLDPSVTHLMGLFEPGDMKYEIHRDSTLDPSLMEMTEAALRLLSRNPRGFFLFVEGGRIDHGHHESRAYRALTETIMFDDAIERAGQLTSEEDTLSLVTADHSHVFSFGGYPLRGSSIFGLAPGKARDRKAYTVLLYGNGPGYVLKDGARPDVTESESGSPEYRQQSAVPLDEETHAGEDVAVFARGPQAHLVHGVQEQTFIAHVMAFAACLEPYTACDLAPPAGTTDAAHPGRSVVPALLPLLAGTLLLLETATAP

[18] = molecular target: T6, Leucine aminopeptidase (Plasmodium falciparum 3D7, UniProt Q8IL11); experiment: P. falciparum M17LAP inhibitors, primary screen, biochemical, fluorogenic H-Leu-NHMec substrate, 1536-well (AID 1619); format: functional
T6 sequence (Q8IL11 whole entry): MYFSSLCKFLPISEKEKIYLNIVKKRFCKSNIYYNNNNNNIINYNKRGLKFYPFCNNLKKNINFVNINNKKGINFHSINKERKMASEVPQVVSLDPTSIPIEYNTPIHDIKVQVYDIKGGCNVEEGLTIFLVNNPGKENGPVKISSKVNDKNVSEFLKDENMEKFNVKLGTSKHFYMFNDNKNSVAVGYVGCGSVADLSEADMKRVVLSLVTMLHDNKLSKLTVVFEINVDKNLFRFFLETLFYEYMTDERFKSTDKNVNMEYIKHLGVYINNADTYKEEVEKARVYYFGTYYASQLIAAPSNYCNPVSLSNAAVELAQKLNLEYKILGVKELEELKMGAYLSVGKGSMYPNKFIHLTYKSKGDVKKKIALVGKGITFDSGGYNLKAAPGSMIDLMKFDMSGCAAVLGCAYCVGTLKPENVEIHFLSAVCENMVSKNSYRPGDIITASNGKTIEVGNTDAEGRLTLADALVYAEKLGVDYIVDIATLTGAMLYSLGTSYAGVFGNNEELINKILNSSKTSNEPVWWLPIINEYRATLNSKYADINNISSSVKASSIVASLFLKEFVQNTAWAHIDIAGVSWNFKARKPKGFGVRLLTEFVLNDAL

[19] = molecular target: T7, Bcl-2-like protein 10 (Homo sapiens, UniProt Q9HD36); experiment: Bcl-B/TR3 peptide binding disruption – biochemical, fluorescence polarization, FITC-TR3 peptide, selectivity assay for Bfl-1 inhibitor project, primary screen (AID 748);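 further: fluorescence polarization from a fluorescein-labelled TR3 peptide binding purified Bcl-B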
T7 sequence (Q9HD36 whole entry): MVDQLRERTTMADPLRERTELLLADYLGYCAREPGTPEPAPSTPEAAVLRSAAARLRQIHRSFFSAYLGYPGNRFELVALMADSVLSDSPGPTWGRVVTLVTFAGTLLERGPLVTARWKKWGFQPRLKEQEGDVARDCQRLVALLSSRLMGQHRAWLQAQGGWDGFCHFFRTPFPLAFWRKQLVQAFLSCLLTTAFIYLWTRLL

SMILES: O=C(COc1ccc(F)c(Cl)c1)Nc1nnc(-c2ccc(F)cc2)o1
- EC50 [1]: 1.7 µM (active)

SMILES: O=C(c1cnc(Cl)c(Cl)c1)N1CCC(Cc2ccccc2)CC1
- AC50 [2]: 18.2 µM (active)

SMILES: Cc1n(Cc2ccccc2)c2ccc(Cl)cc2[n+]1C
- IC50 [3]: 4.75 µM (active)
- IC50 [4]: 2.46 µM (active)

SMILES: CCN1C(=O)CC(C(=O)Nc2ccc(F)cc2)S/C1=N\c1ccccc1OC (centres undefined)
- IC50 [5]: > 100 µM (inactive)
- IC50 [6]: > 100 µM (inactive)

SMILES: Cn1cnc([N+](=O)[O-])c1S(=O)(=O)c1ccc(Cl)cc1
- IC50 [7]: 17.7 µM (active)
- EC50 [8]: 6.79 µM (active)
- IC50 [9]: 101 µM (active)
- EC50 [10]: 8.29 µM (active)
- IC50 [11]: 19.8 µM (active)
- EC50 [12]: 5.88 µM (active)
- EC50 [13]: 17.8 µM (active)
- AC50 [14]: 19.5 µM (active)

SMILES: C=CCn1c(SCC(=O)c2ccc(O)c(O)c2)nnc1-c1ccccc1OC
- IC50 [15]: > 100 µM (inactive) and 44.8 µM (active)
- IC50 [16]: 14.7 µM (active)
- IC50 [17]: 2.6 µM (active) and 2.79 µM (active)
- IC50 [18]: 22.8 µM (active)
- IC50 [19]: > 100 µM (inactive)

From ChEMBL document CHEMBL1201862, “PubChem BioAssay data set” (2004)
